Earlier results as cited in patent publication EP4257117A1, “SUSTAINED-RELEASE PHARMACEUTICAL COMPOSITION OF FULVESTRANT AND METHOD FOR PREPARING SAME” (Samyang Holdings Corporation, priority 2020, dated 2022).
Read-outs that look alike come from different tables or passages of the source.

What was measured:
[1] = according to the prescription of Faslodex Injection
[2] = in pure water, according to FDA data

saturation solubility of Fulvestrant ([1]; at room temperature): about 90 mg/mL | saturation solubility of Fulvestrant ([1]; in refrigerated storage): about 65 mg/mL | solubility in aqueous solution [2]: practically insoluble
Compound: C[C@]12CC[C@@H]3c4ccc(O)cc4C[C@@H](CCCCCCCCC[S+]([O-])CCCC(F)(F)C(F)(F)F)[C@H]3[C@@H]1CC[C@@H]2O (stereo partly drawn) [Fulvestrant, 7-alpha-[9-(4,4,5,5,5-pentafluoropentylsulphinyl)nonyl]estra-1,3,5-(10)-triene-3,17beta-diol]
